Test results as given in US12077503B2, “Substituted cyclic amides and their use as herbicides” (FMC CORPORATION, priority 2015, dated 2024).

Legend:
Format in all cases: in vivo
[1] = tested on: redroot pigweed (Amaranthus retroflexus); experiment: Test G Pre-Emergence Protocol; settings: Amaranthus retroflexus, pre-emergence, 312 h, evaluated after 13 days; for pest or weed control at 15.625 g/ha: 15.625 g ai/ha; for pest or weed control at 15.625 g/ha / pest or weed control at 250 g/ha: read-out: Pigweed, Redroot damage rating (100=total damage to plant; 0=no damage to plant); for pest or weed control at 62.5 g/ha: 62.5 g ai/ha, 100=total damage to plant, 0=no damage to plant, read-out: plant damage rating, Pigweed, Redroot; for pest or weed control at 250 g/ha: 250 g ai/ha
Description: (§1) Seeds of corn (Zea mays), giant foxtail (Setaria faberi), barnyardgrass (Echinochloa crus-galli), ivy-leaved morning glory (Ipomoea hederacea), redroot pigweed (Amaranthus retroflexus) and velvetleaf (Abutilon theophrasti) were sown in standard soil in pots. After cultivation for one day under controlled conditions in a glasshouse (at 24/16° C., day/night; 14 hours light; 65% humidity), the plants were sprayed with an aqueous spray solution derived from the formulation of the technical active ingredient in acetone/water (50:50) solution containing 0.5% Tween 20 (polyoxyethylene sorbitan monolaurate, CAS RN 9005-64-5) to give a final dose of 15.625, 62.5 or 250 g/ha of test compound.
(§2) The test plants were then grown on under controlled conditions in a glasshouse (at 24/16° C., day/night; 14 hours light; 65% humidity) and watered twice daily. After 13 days the test was evaluated (100=total damage to plant; 0=no damage to plant). A dash (-) means no test result.

corn (Zea mays) [2] = experiment: Test G Pre-Emergence Protocol; settings: Zea mays, pre-emergence, 312 h, evaluated after 13 days; for plant injury at 15.625 g/ha: 15.625 g ai/ha; for plant injury at 15.625 g/ha / plant injury at 250 g/ha: read-out: Corn damage rating (100=total damage to plant; 0=no damage to plant); for plant injury at 62.5 g/ha: 62.5 g ai/ha, 100=total damage to plant, 0=no damage to plant, read-out: plant damage rating, Corn; for plant injury at 250 g/ha: 250 g ai/ha
Description: as §1, §2

[3] = tested on: ivy-leaved morning glory (Ipomoea hederacea); experiment: Test G Pre-Emergence Protocol; settings: Ipomoea, pre-emergence, 312 h, evaluated after 13 days; for pest or weed control at 15.625 g/ha: 15.625 g ai/ha, read-out: Morning-glory, Ivy-leaved damage rating (100=total damage to plant; 0=no damage to plant); for pest or weed control at 62.5 g/ha: 62.5 g ai/ha, 100=total damage to plant, 0=no damage to plant, read-out: plant damage rating, Morningglory, Ivy-leaved; for pest or weed control at 250 g/ha: 250 g ai/ha, read-out: Morningglory, Ivy-leaved damage rating (100=total damage to plant; 0=no damage to plant)
Description: as §1, §2

[4] = tested on: barnyardgrass (Echinochloa crus-galli); experiment: Test G Pre-Emergence Protocol; settings: Echinochloa crus-galli, pre-emergence, 312 h, evaluated after 13 days; for pest or weed control at 15.625 g/ha: 15.625 g ai/ha, read-out: Barnyard grass damage rating (100=total damage to plant; 0=no damage to plant); for pest or weed control at 62.5 g/ha: 62.5 g ai/ha, 100=total damage to plant, 0=no damage to plant, read-out: plant damage rating, Barnyardgrass; for pest or weed control at 250 g/ha: 250 g ai/ha, read-out: Barnyardgrass damage rating (100=total damage to plant; 0=no damage to plant)
Description: as §1, §2

[5] = tested on: giant foxtail (Setaria faberi); experiment: Test G Pre-Emergence Protocol; settings: Setaria faberi, pre-emergence, 312 h, evaluated after 13 days; for pest or weed control at 15.625 g/ha: 15.625 g ai/ha; for pest or weed control at 15.625 g/ha / pest or weed control at 250 g/ha: read-out: Foxtail, Giant damage rating (100=total damage to plant; 0=no damage to plant); for pest or weed control at 62.5 g/ha: 62.5 g ai/ha, 100=total damage to plant, 0=no damage to plant, read-out: plant damage rating, Foxtail, Giant; for pest or weed control at 250 g/ha: 250 g ai/ha
Description: as §1, §2

[6] = tested on: velvetleaf (Abutilon theophrasti); experiment: Test G Pre-Emergence Protocol; settings: Abutilon theophrasti, pre-emergence, 312 h, evaluated after 13 days; for pest or weed control at 15.625 g/ha: 15.625 g ai/ha; for pest or weed control at 15.625 g/ha / pest or weed control at 250 g/ha: read-out: Velvetleaf damage rating (100=total damage to plant; 0=no damage to plant); for pest or weed control at 62.5 g/ha: 62.5 g ai/ha, 100=total damage to plant, 0=no damage to plant, read-out: plant damage rating, Velvetleaf; for pest or weed control at 250 g/ha: 250 g ai/ha
Description: as §1, §2

[7] = tested on: redroot pigweed (Amaranthus retroflexus); experiment: Test G Post-Emergence Protocol; settings: Amaranthus retroflexus, post-emergence, 312 h; for pest or weed control at 15.625 g/ha: 15.625 g ai/ha, evaluated after 13 days (100=total damage to plant; 0=no damage to plant), read-out: Pigweed, Redroot damage rating; for pest or weed control at 62.5 g/ha: 62.5 g ai/ha, read-out: Pigweed, Redroot damage rating (100=total damage to plant; 0=no damage to plant); for pest or weed control at 62.5 g/ha / pest or weed control at 250 g/ha: evaluated after 13 days; for pest or weed control at 250 g/ha: 250 g ai/ha, read-out: damage to plant, Pigweed, Redroot (100=total damage to plant; 0=no damage to plant)
Description: as §1, with “8 days” for “one day”
as §2

corn (Zea mays) [8] = experiment: Test G Post-Emergence Protocol; settings: Zea mays, post-emergence, 312 h; for plant injury at 15.625 g/ha: 15.625 g ai/ha, evaluated after 13 days (100=total damage to plant; 0=no damage to plant), read-out: Corn damage rating; for plant injury at 62.5 g/ha: 62.5 g ai/ha, read-out: Corn damage rating (100=total damage to plant; 0=no damage to plant); for plant injury at 62.5 g/ha / plant injury at 250 g/ha: evaluated after 13 days; for plant injury at 250 g/ha: 250 g ai/ha, read-out: damage to plant, Corn (100=total damage to plant; 0=no damage to plant)
Description: as §1, with “8 days” for “one day”
as §2

[9] = tested on: ivy-leaved morning glory (Ipomoea hederacea); experiment: Test G Post-Emergence Protocol; settings: Ipomoea, post-emergence, 312 h; for pest or weed control at 15.625 g/ha: 15.625 g ai/ha, evaluated after 13 days (100=total damage to plant; 0=no damage to plant), read-out: Morningglory, Ivy-leaved damage rating; for pest or weed control at 62.5 g/ha: 62.5 g ai/ha, read-out: Morningglory, Ivy-leaved damage rating (100=total damage to plant; 0=no damage to plant); for pest or weed control at 62.5 g/ha / pest or weed control at 250 g/ha: evaluated after 13 days; for pest or weed control at 250 g/ha: 250 g ai/ha, read-out: damage to plant, Morningglory, Ivy-leaved (100=total damage to plant; 0=no damage to plant)
Description: as §1, with “8 days” for “one day”
as §2

[10] = tested on: barnyardgrass (Echinochloa crus-galli); experiment: Test G Post-Emergence Protocol; settings: Echinochloa crus-galli, post-emergence, 312 h; for pest or weed control at 15.625 g/ha: 15.625 g ai/ha, evaluated after 13 days (100=total damage to plant; 0=no damage to plant), read-out: Barnyardgrass damage rating; for pest or weed control at 62.5 g/ha: 62.5 g ai/ha, read-out: Barnyardgrass damage rating (100=total damage to plant; 0=no damage to plant); for pest or weed control at 62.5 g/ha / pest or weed control at 250 g/ha: evaluated after 13 days; for pest or weed control at 250 g/ha: 250 g ai/ha, read-out: damage to plant, Barnyardgrass (100=total damage to plant; 0=no damage to plant)
Description: as §1, with “8 days” for “one day”
as §2

[11] = tested on: giant foxtail (Setaria faberi); experiment: Test G Post-Emergence Protocol; settings: Setaria faberi, post-emergence, 312 h; for pest or weed control at 15.625 g/ha: 15.625 g ai/ha, evaluated after 13 days (100=total damage to plant; 0=no damage to plant), read-out: Foxtail, Giant damage rating; for pest or weed control at 62.5 g/ha: 62.5 g ai/ha, read-out: Foxtail, Giant damage rating (100=total damage to plant; 0=no damage to plant); for pest or weed control at 62.5 g/ha / pest or weed control at 250 g/ha: evaluated after 13 days; for pest or weed control at 250 g/ha: 250 g ai/ha, read-out: damage to plant, Foxtail, Giant (100=total damage to plant; 0=no damage to plant)
Description: as §1, with “8 days” for “one day”
as §2

[12] = tested on: velvetleaf (Abutilon theophrasti); experiment: Test G Post-Emergence Protocol; settings: Abutilon theophrasti, post-emergence, 312 h; for pest or weed control at 15.625 g/ha: 15.625 g ai/ha, evaluated after 13 days (100=total damage to plant; 0=no damage to plant), read-out: Velvetleaf damage rating; for pest or weed control at 62.5 g/ha: 62.5 g ai/ha, read-out: Velvetleaf damage rating (100=total damage to plant; 0=no damage to plant); for pest or weed control at 62.5 g/ha / pest or weed control at 250 g/ha: evaluated after 13 days; for pest or weed control at 250 g/ha: 250 g ai/ha, read-out: damage to plant, Velvetleaf (100=total damage to plant; 0=no damage to plant)
Description: as §1, with “8 days” for “one day”
as §2

SMILES	pest or weed control at 15.625 g/ha [1] [%]	pest or weed control at 62.5 g/ha [1] [%]	pest or weed control at 250 g/ha [1] [%]	plant injury at 15.625 g/ha (corn (Zea mays) [2]) [%]	plant injury at 62.5 g/ha (corn (Zea mays) [2]) [%]	plant injury at 250 g/ha (corn (Zea mays) [2]) [%]	pest or weed control at 15.625 g/ha [3] [%]	pest or weed control at 62.5 g/ha [3] [%]	pest or weed control at 250 g/ha [3] [%]	pest or weed control at 15.625 g/ha [4] [%]	pest or weed control at 62.5 g/ha [4] [%]	pest or weed control at 250 g/ha [4] [%]	pest or weed control at 15.625 g/ha [5] [%]	pest or weed control at 62.5 g/ha [5] [%]	pest or weed control at 250 g/ha [5] [%]	pest or weed control at 15.625 g/ha [6] [%]	pest or weed control at 62.5 g/ha [6] [%]	pest or weed control at 250 g/ha [6] [%]	pest or weed control at 15.625 g/ha [7] [%]	pest or weed control at 62.5 g/ha [7] [%]	other results
COc1cc([C@H]2CN(C)C(=O)[C@@H]2C(=O)Nc2ccccc2F)ccc1Cl (racemic) [Compound 1421]	0	0	0	0	0	10	0	0	0	10	60	80	70	80	90	0	0	0	0	0	pest or weed control at 250 g/ha [7]: 0%; plant injury at 15.625 g/ha (corn (Zea mays) [8]): 10%; plant injury at 62.5 g/ha (corn (Zea mays) [8]): 10%; plant injury at 250 g/ha (corn (Zea mays) [8]): 10%; pest or weed control at 15.625 g/ha [9]: 10%; pest or weed control at 62.5 g/ha [9]: 0%; pest or weed control at 250 g/ha [9]: 0%; pest or weed control at 15.625 g/ha [10]: 0%; pest or weed control at 62.5 g/ha [10]: 20%; pest or weed control at 250 g/ha [10]: 20%; pest or weed control at 15.625 g/ha [11]: 20%; pest or weed control at 62.5 g/ha [11]: 40%; pest or weed control at 250 g/ha [11]: 50%; pest or weed control at 15.625 g/ha [12]: 10%; pest or weed control at 62.5 g/ha [12]: 0%; pest or weed control at 250 g/ha [12]: 0%
Cc1c(NC(=O)[C@H]2C(=O)N(C)C[C@@H]2c2ccc(C(F)(F)F)cc2)cccc1[N+](=O)[O-] (racemic) [Compound 1423]	0	0	0	10	20	10	0	0	0	10	10	30	10	60	70	0	0	0	0	0	pest or weed control at 250 g/ha [7]: 50%; plant injury at 15.625 g/ha (corn (Zea mays) [8]): 10%; plant injury at 62.5 g/ha (corn (Zea mays) [8]): 0%; plant injury at 250 g/ha (corn (Zea mays) [8]): 10%; pest or weed control at 15.625 g/ha [9]: 0%; pest or weed control at 62.5 g/ha [9]: 0%; pest or weed control at 250 g/ha [9]: 0%; pest or weed control at 15.625 g/ha [10]: 0%; pest or weed control at 62.5 g/ha [10]: 10%; pest or weed control at 250 g/ha [10]: 10%; pest or weed control at 15.625 g/ha [11]: 0%; pest or weed control at 62.5 g/ha [11]: 20%; pest or weed control at 250 g/ha [11]: 60%; pest or weed control at 15.625 g/ha [12]: 0%; pest or weed control at 62.5 g/ha [12]: 0%; pest or weed control at 250 g/ha [12]: 0%
